Assay results taken from patent US12589099B2 (priority 2021, dated 2026).

Assays:
[1] = system: Pseudomonas aeruginosa (ATCC No. 9027); test: USP 51 Preservative Challenge Test; format: cell-based; details: P. aeruginosa ATCC 9027
Experimental: (§1) In order to assess the anti-microbial properties of ALPHA-1062, the USP (US Pharmacopeia) Chapter 51 Preservative Challenge Test (USP 51) was employed. The USP 51 is a common method used to gauge preservative effectiveness. Much like a Preservative Challenge Screen, it is used to evaluate the effect of preservatives in cosmetics, personal care products, and drug products. Preservatives are typically antimicrobial ingredients that are added to aqueous product formulations to help maintain the safety of the product by inhibiting the growth and reducing the number of microbial contaminants.
(§2) In the context of the present invention, ALPHA-1062 (in the form of the gluconate salt) was assessed in place of (as) a preservative. No additional preservative was added to the ALPHA-1062 gluconate preparation, rather an anti-microbial effect of the agent itself (ALPHA-1062) was assessed. ALPHA-1062 is therefore the anti-microbial agent in the assay and experiments described below.
(§3) The USP 51 challenge test utilizes 5 microorganisms (3 bacteria and 2 fungi) for challenge testing. Each of the microorganisms are known strains of pathogenic microorganisms and they represent a wide range of microbial physiologies.
(§4) Cultures of the following microorganisms were applied, as per standard guidelines for USP 51: Candida albicans (ATCC No. 10231), Aspergillus brasiliensis (ATCC No. 16404), Escherichia coli (ATCC No. 8739), Pseudomonas aeruginosa (ATCC No. 9027), and Staphylococcus aureus (ATCC No. 6538).
(§5) The test was conducted in five sterile, capped bacteriological containers of suitable size into which a sufficient volume of product has been transferred. Each container was inoculated with one of the prepared and standardized inoculums and was mixed accordingly. The volume of the suspension inoculum used was between 0.5% and 1.0% of the volume of the product. The concentration of test microorganisms that was added to the product was such that the final concentration of the test preparation after inoculation was between 1×10^5 and 1×10^6 CFU per mL of the product, according to standard guidelines for Category 2 products.
(§6) The initial concentration of viable microorganisms in each test preparation was estimated based on the concentration of microorganisms in each of the standardized inoculums, as determined by the plate-count method.
(§7) The inoculated containers were incubated at 22.5±2.5° C. and each container was sampled at the appropriate intervals, as specified in Table 3. Any changes observed in the appearance of the culture was recorded at these intervals. By using the plate-count procedure, the number of CFU present in each test preparation was determined for the applicable intervals.
(§8) An inactivator (neutralizer) of the specific antimicrobial was incorporated in the plate count or in the appropriate dilution prepared for plating. These conditions were determined in the validation study for that sample based upon the conditions of media and microbial recovery incubation times listed in Table 2. Using the calculated concentrations of CFU per mL present at the start of the test, the change in log 10 values of the concentration of CFU per mL for each microorganism was calculated at the applicable test intervals, and the changes were expressed in terms of log reductions.
(§9) The USP Criteria for Category 2 were employed in order to determine the presence of an anti-microbial effect. For bacteria, an antimicrobial effect is evident when at least a 2.0 log reduction from the initial count is evident at 14 days and no increase is evident from the 14-day count at 28 days. For yeast and molds, an antimicrobial effect is evident when no increase from the initial calculated count is determined at 14 and 28 days.

[2] = system: Staphylococcus aureus (ATCC No. 6538); test: USP 51 Preservative Challenge Test; format: cell-based; details: S. aureus ATCC 6538
Experimental: as §1, §2, §3, §4, §5, §6, §7, §8, §9

[3] = system: Candida albicans (ATCC No. 10231); test: USP 51 Preservative Challenge Test; format: cell-based; details: C. albicans ATCC 10231
Experimental: as §1, §2, §3, §4, §5, §6, §7, §8, §9

[4] = system: Escherichia coli (ATCC No. 8739); test: USP 51 Preservative Challenge Test; format: cell-based; details: E. coli ATCC 8739
Experimental: as §1, §2, §3, §4, §5, §6, §7, §8, §9

[5] = system: Aspergillus brasiliensis (ATCC No. 16404); test: USP 51 Preservative Challenge Test; format: cell-based; details: A. brasiliensis ATCC 16404; initial Log10 5.3
Experimental: as §1, §2, §3, §4, §5, §6, §7, §8, §9

[6] = system: 5 microorganisms (3 bacteria and 2 fungi); test: USP 51 Preservative Challenge Test, overall assessment by USP Criteria for Category 2; format: cell-based; details: 14 and 28 days
Experimental: as §1
In the context of the present invention, ALPHA-1062 (in the form of the gluconate salt) was assessed in place of (as) a preservative. No additional preservative was added to the ALPHA-1062 gluconate preparation, rather an anti-microbial effect of the agent itself (ALPHA-1062) was assessed. ALPHA-1062 is therefore the anti-microbial agent in the assay and experiments described below. […]
The inoculated containers were incubated at 22.5±2.5° C. and each container was sampled at the appropriate intervals, as specified in Table 3. Any changes observed in the appearance of the culture was recorded at these intervals. By using the plate-count procedure, the number of CFU present in each test preparation was determined for the applicable intervals. […]

[7] = 43% RH (RT), up to 5 days; cited from earlier work
[8] = initial 2.9 × 10^5 CFU/mL (Log10 5.5), 22.5±2.5° C., no additional preservative
[9] = initial 4.0 × 10^5 CFU/mL (Log10 5.6), 22.5±2.5° C., no additional preservative
[10] = initial 6.7 × 10^5 CFU/mL (Log10 5.8), 22.5±2.5° C., no additional preservative
[11] = initial 9.1 × 10^5 CFU/mL (Log10 6.0), 22.5±2.5° C., no additional preservative

| Compound | Day 14 CFU/mL [1, 8] | Day 28 CFU/mL [1, 8] | Day 14 Log Reduction ([1]; initial Log10 5.5) | Day 28 Log Reduction ([1]; initial Log10 5.5) | Day 14 CFU/mL [2, 9] | Day 28 CFU/mL [2, 9] | Day 14 Log Reduction ([2]; initial Log10 5.6) | Day 28 Log Reduction ([2]; initial Log10 5.6) | Day 14 CFU/mL [3, 10] | Day 28 CFU/mL [3, 10] | Day 14 Log Reduction ([3]; initial Log10 5.8) | Day 28 Log Reduction ([3]; initial Log10 5.8) | Day 14 CFU/mL [4, 11] | Day 28 CFU/mL [4, 11] | Day 14 Log Reduction ([4]; initial Log10 6.0) | Day 28 Log Reduction ([4]; initial Log10 6.0) | Day 14 Log Reduction [5] | Day 28 Log Reduction [5] | anti-microbial effect against all 5 organisms tested in the USP 51 [6] | solid state stability of the crystalline form [7] |
| --- | --- | --- | --- | --- | --- | --- | --- | --- | --- | --- | --- | --- | --- | --- | --- | --- | --- | --- | --- | --- |
| COc1ccc2c3c1O[C@H]1C[C@@H](OC(=O)c4ccccc4)C=C[C@@]31CCN(C)C2 [ALPHA-1062 Gluconate] | <10 CFU/mL | <10 CFU/mL | 4.5 | 4.5 | <10 CFU/mL | <10 CFU/mL | 4.6 | 4.6 | <10 CFU/mL | <10 CFU/mL | 4.8 | 4.8 | <10 CFU/mL | <10 CFU/mL | 5.0 | 5.0 | 3.1 | 3.1 | strong anti-microbial effect | – |
| COc1ccc2c3c1O[C@H]1C[C@@H](OC(=O)c4ccccc4)C=C[C@@]31CCN(C)C2.O=C(O)C(O)C(O)C(O)C(O)CO [Form A] | – | – | – | – | – | – | – | – | – | – | – | – | – | – | – | – | – | – | – | kinetically stable |
